Measured values from patent publication US20250186405A1, “Compound For Use In Treating Narcolepsy” (Alkermes, Inc., priority 2023, published 2025).

Tested on: subjects with idiopathic hypersomnia (IH)
Assay: Part 6 POC IH: treatment-emergent adverse events, single doses, crossover
[1] = Total (any Compound A dose), N = 8

Description: Part 6 consisted of a 4-way, 4-period crossover study design in approximately 8 subjects (2 subjects per sequence; minimum of 4 subjects with 1 subject per sequence). […] Treatments were administered under fasted state.
Subjects were randomized to 1 of 4 sequences. […] No food was given for at least 3 hours after dose administration (i.e., fast can be broken after the 3-hour PK time point is collected). Water was allowed ad libitum except for 1 hour before and 1 hour after study drug administration. Safety assessments including AEs, safety ECGs, vital signs, and clinical laboratory tests were conducted, and plasma PK samples were collected.
Adverse events (AEs) and serious adverse events (SAEs) were monitored continuously until the completion of the study.
Eight subjects with IH were dosed in Part 6 (POC in IH) in a randomized 4-sequence 4-period cross-over design.

CS(=O)(=O)N[C@H]1CCCN2C(=O)COc3ccccc3C3CCC(CC3)OCC12 (stereo partly drawn) [Compound A, N-[(4S,4aR,7α,10α)-1,2,3,4,4a,5,7,8,9,10,16,17-dodecahydro-17-oxo-7,10-ethanopyrido[1,2-d][1,7,4]benzodioxaazacyclotridecin-4-yl]methanesulfonamide]
Any SAEs (25 mg single dose, N = 8): 0 n (%) | Any TEAE (25 mg single dose, N = 8): 7 (87.5) n (%) | Death (25 mg single dose, N = 8): 0 n (%) | Drug Related TEAE by Preferred Term: Cold sweat (25 mg single dose, N = 8): 1 (12.5) n (%) | Drug Related TEAE by Preferred Term: Dizziness (25 mg single dose, N = 8): 2 (25.0) n (%) | Drug Related TEAE by Preferred Term: Dysuria (25 mg single dose, N = 8): 1 (12.5) n (%) | Drug Related TEAE by Preferred Term: Feeling jittery (25 mg single dose, N = 8): 1 (12.5) n (%) | Drug Related TEAE by Preferred Term: Insomnia (25 mg single dose, N = 8): 2 (25.0) n (%) | Drug Related TEAE by Preferred Term: Micturition urgency (25 mg single dose, N = 8): 1 (12.5) n (%) | Drug Related TEAE by Preferred Term: Middle insomnia (25 mg single dose, N = 8): 1 (12.5) n (%) | Drug Related TEAE by Preferred Term: Palpitations (25 mg single dose, N = 8): 1 (12.5) n (%) | Drug Related TEAE by Preferred Term: Pollakiuria (25 mg single dose, N = 8): 4 (50.0) n (%) | Drug Related TEAE by Preferred Term: Supraventricular extrasystoles (25 mg single dose, N = 8): 1 (12.5) n (%) | Drug Related TEAE by Preferred Term: Tachycardia (25 mg single dose, N = 8): 1 (12.5) n (%) | Drug Related TEAE by Preferred Term: Visual impairment (25 mg single dose, N = 8): 1 (12.5) n (%) | Subjects with at least one TEAE (25 mg single dose, N = 8): 7 (87.5) n (%) | Subjects with at least one treatment-related TEAE (25 mg single dose, N = 8): 7 (87.5) n (%) | TEAE by Highest Relationship: Not Related (25 mg single dose, N = 8): 0 n (%) | TEAE by Highest Relationship: Related (25 mg single dose, N = 8): 7 (87.5) n (%) | TEAE by Highest Severity: Mild (25 mg single dose, N = 8): 6 (75.0) n (%) | TEAE by Highest Severity: Moderate (25 mg single dose, N = 8): 1 (12.5) n (%) | TEAE by Highest Severity: Severe (25 mg single dose, N = 8): 0 n (%) | TEAE by Preferred Term: Blood creatine phosphokinase increased (25 mg single dose, N = 8): 0 n (%) | TEAE by Preferred Term: Blood creatinine increased (25 mg single dose, N = 8): 0 n (%) | TEAE by Preferred Term: Cold sweat (25 mg single dose, N = 8): 1 (12.5) n (%) | TEAE by Preferred Term: Dermatitis contact (25 mg single dose, N = 8): 0 n (%) | TEAE by Preferred Term: Dizziness (25 mg single dose, N = 8): 2 (25.0) n (%) | TEAE by Preferred Term: Dysuria (25 mg single dose, N = 8): 1 (12.5) n (%) | TEAE by Preferred Term: Epistaxis (25 mg single dose, N = 8): 1 (12.5) n (%) | TEAE by Preferred Term: Feeling jittery (25 mg single dose, N = 8): 1 (12.5) n (%) | TEAE by Preferred Term: Headache (25 mg single dose, N = 8): 1 (12.5) n (%) | TEAE by Preferred Term: Insomnia (25 mg single dose, N = 8): 2 (25.0) n (%) | TEAE by Preferred Term: Micturition urgency (25 mg single dose, N = 8): 1 (12.5) n (%) | TEAE by Preferred Term: Middle insomnia (25 mg single dose, N = 8): 1 (12.5) n (%) | TEAE by Preferred Term: Nausea (25 mg single dose, N = 8): 0 n (%) | TEAE by Preferred Term: Neck pain (25 mg single dose, N = 8): 0 n (%) | TEAE by Preferred Term: Palpitations (25 mg single dose, N = 8): 1 (12.5) n (%) | TEAE by Preferred Term: Phlebitis (25 mg single dose, N = 8): 0 n (%) | TEAE by Preferred Term: Pollakiuria (25 mg single dose, N = 8): 4 (50.0) n (%) | TEAE by Preferred Term: Presyncope (25 mg single dose, N = 8): 0 n (%) | TEAE by Preferred Term: Skin irritation (25 mg single dose, N = 8): 0 n (%) | TEAE by Preferred Term: Steatorrhoea (25 mg single dose, N = 8): 0 n (%) | TEAE by Preferred Term: Supraventricular extrasystoles (25 mg single dose, N = 8): 1 (12.5) n (%) | TEAE by Preferred Term: Tachycardia (25 mg single dose, N = 8): 1 (12.5) n (%) | TEAE by Preferred Term: Urinary tract infection (25 mg single dose, N = 8): 0 n (%) | TEAE by Preferred Term: Vessel puncture site bruise (25 mg single dose, N = 8): 0 n (%) | TEAE by Preferred Term: Vessel puncture site pain (25 mg single dose, N = 8): 1 (12.5) n (%) | TEAE by Preferred Term: Visual impairment (25 mg single dose, N = 8): 1 (12.5) n (%) | TEAE by Preferred Term: Vomiting (25 mg single dose, N = 8): 0 n (%) | Tolerability (IH, 5, 12 and 25 mg): well tolerated | Subjects with at least one TEAE (IH, N = 8, all periods): 100% | AE Leading to Study Drug Discontinuation [1]: 0 n (%) | Any SAEs [1]: 0 n (%) | Any TEAE [1]: 8 n (%) | Death [1]: 0 n (%) | Drug Related TEAE by Preferred Term: Cold sweat [1]: 1 (12.5) n (%) | Drug Related TEAE by Preferred Term: Dizziness [1]: 2 (25.0) n (%) | Drug Related TEAE by Preferred Term: Dysuria [1]: 1 (12.5) n (%) | Drug Related TEAE by Preferred Term: Feeling jittery [1]: 1 (12.5) n (%) | Drug Related TEAE by Preferred Term: Insomnia [1]: 2 (25.0) n (%) | Drug Related TEAE by Preferred Term: Micturition urgency [1]: 1 (12.5) n (%) | Drug Related TEAE by Preferred Term: Middle insomnia [1]: 2 (25.0) n (%) | Drug Related TEAE by Preferred Term: Palpitations [1]: 1 (12.5) n (%) | Drug Related TEAE by Preferred Term: Pollakiuria [1]: 5 (62.5) n (%) | Drug Related TEAE by Preferred Term: Supraventricular extrasystoles [1]: 1 (12.5) n (%) | Drug Related TEAE by Preferred Term: Tachycardia [1]: 1 (12.5) n (%) | Drug Related TEAE by Preferred Term: Visual impairment [1]: 1 (12.5) n (%) | Subjects with at least one TEAE [1]: 8 n (%) | Subjects with at least one treatment-related TEAE [1]: 8 (100) n (%) | TEAE by Highest Relationship: Not Related [1]: 0 n (%) | TEAE by Highest Relationship: Related [1]: 8 n (%) | TEAE by Highest Severity: Mild [1]: 7 n (%) | TEAE by Highest Severity: Moderate [1]: 1 n (%) | TEAE by Highest Severity: Severe [1]: 0 n (%) | TEAE by Preferred Term: Blood creatine phosphokinase increased [1]: 1 n (%) | TEAE by Preferred Term: Blood creatinine increased [1]: 1 n (%) | TEAE by Preferred Term: Cold sweat [1]: 1 n (%) | TEAE by Preferred Term: Dermatitis contact [1]: 0 n (%) | TEAE by Preferred Term: Dizziness [1]: 4 n (%) | TEAE by Preferred Term: Dysuria [1]: 1 n (%) | TEAE by Preferred Term: Epistaxis [1]: 1 n (%) | TEAE by Preferred Term: Feeling jittery [1]: 1 n (%) | TEAE by Preferred Term: Headache [1]: 3 n (%) | TEAE by Preferred Term: Insomnia [1]: 2 n (%) | TEAE by Preferred Term: Micturition urgency [1]: 1 n (%) | TEAE by Preferred Term: Middle insomnia [1]: 2 n (%) | TEAE by Preferred Term: Nausea [1]: 1 n (%) | TEAE by Preferred Term: Neck pain [1]: 1 n (%) | TEAE by Preferred Term: Palpitations [1]: 1 n (%) | TEAE by Preferred Term: Phlebitis [1]: 1 n (%) | TEAE by Preferred Term: Pollakiuria [1]: 5 n (%) | TEAE by Preferred Term: Presyncope [1]: 1 n (%) | TEAE by Preferred Term: Skin irritation [1]: 1 n (%) | TEAE by Preferred Term: Steatorrhoea [1]: 1 n (%) | TEAE by Preferred Term: Supraventricular extrasystoles [1]: 1 n (%) | TEAE by Preferred Term: Tachycardia [1]: 1 n (%) | TEAE by Preferred Term: Urinary tract infection [1]: 1 n (%) | TEAE by Preferred Term: Vessel puncture site bruise [1]: 2 n (%) | TEAE by Preferred Term: Vessel puncture site pain [1]: 1 n (%) | TEAE by Preferred Term: Visual impairment [1]: 1 n (%) | TEAE by Preferred Term: Vomiting [1]: 0 n (%)
